Patent publication US10029984B2, “Mono- or di-substituted indole derivatives as dengue viral replication inhibitors” (Janssen Pharmaceuticals, Inc., priority 2015, dated 2018)

Columns and labels:
DENV-2 16681 strain = experiment: DENV-2 antiviral assay (eGFP-labeled virus in Vero cells); type: cell-based, Dengue virus; conditions: DENV-2 16681 eGFP, MOI 0.5, 3 days
Protocol: The antiviral activity of all the compounds of the invention was tested against DENV-2 16681 strain which was labeled with enhanced green fluorescent protein (eGPF; Table 1). The culture medium consists of minimal essential medium supplemented with 2% of heat-inactivated fetal calf serum, 0.04% gentamycin (50 mg/mL) and 2 mM of L-glutamine. Vero cells, obtained from ECACC, were suspended in culture medium and 25 μL was added to 384-well plates (2500 cells/well), which already contain the antiviral compounds. Typically, these plates contain a 4-fold serial dilution of 9 dilution steps of the test compound at 200 times the final concentration in 100% DMSO (200 nL). In addition, each compound concentration is tested in quadruplicate (final concentration range: 25 μM-0.00038 μM). Finally, each plate contains wells which are assigned as virus controls (containing cells and virus in the absence of compound), cell controls (containing cells in the absence of virus and compound) and medium controls (containing medium in the absence of cells, virus and compounds). To the wells assigned as medium control, 25 μL of culture medium was added instead of Vero cells. Once the cells were added to the plates, the plates were incubated for 30 minutes at room temperature to allow the cells to distribute evenly within the wells. Next, the plates were incubated in a fully humidified incubator (37° C., 5% CO2) until the next day. Then, DENV-2 strain 16681, labeled with eGFP, was added at a multiplicity of infection (MOI) of 0.5. Therefore, 15 μL of virus suspension was added to all the wells containing test compound and to the wells assigned as virus control. In parallel, 15 μL of culture medium was added to the medium and cell controls. Next, the plates were incubated for 3 days in a fully humidified incubator (37° C., 5% CO2). At the day of the read out, the eGFP fluorescence was measured using an automated fluorescence microscope at 488 nm (blue laser). Using an in-house LIMS system, inhibition dose response curves for each compound were calculated and the half maximal effective concentration (EC50) was determined. Therefore, the percent inhibition (I) for every test concentration is calculated using the following formula: I=100*(ST−SCC)/(SVC−SCC); ST, SCC and SVC are the amount of eGFP signal in the test compound, cell control and virus control wells, respectively. The EC50 represents the concentration of a compound at which the virus replication is inhibited with 50%, as measured by a 50% reduction of the eGFP fluorescent intensity compared to the virus control. The EC50 is calculated using linear interpolation.

in vitro = type: cell-based; conditions: African green monkey, CC50
Protocol: In parallel, the toxicity of the compounds was assessed on the same plates. Once the read-out for the eGFP signal was done, 10 μL of resazurin, a cell viability stain, was added to all wells of the 384-well plates. The resazurin assay is based on the reduction of the blue resazurin by NADH, produced by the cells, into the highly fluorescent product, resorufin. The formation of pink fluorescent resorufin is directly related to the number of viable cells in the well. The plates were incubated for an additional 5 hours in a fully humidified incubator (37° C., 5% CO2). Next, the plates were measured on an Infinite reader (Tecan) using an excitation wavelength of 530 nm. The half maximal cytotoxic concentration (CC50) was also determined, defined as the concentration required to reduce the resazurin conversion by 50% compared to that of the cell control wells. Finally, the selectivity index (SI) was determined for the compounds, which was calculated as followed: SI=CC50/EC50.

[1] = Dengue virus, DENV2, Vero, 72 h

Row | Structure (SMILES) | EC50 (DENV-2 16681 strain; [1]) [nM] | CC50 (in vitro) [nM] | EC50 (DENV-2 16681 strain; listed as 5A) [nM] | EC50 (DENV-2 16681 strain; listed as 13A) [nM]
1 | COc1cc(NC(C(=O)c2c[nH]c3c(C)c(F)ccc23)c2ccc(F)cc2OC)cc(S(C)(=O)=O)c1 (racemic) [Compound 2, 2-(4-fluoro-2-methoxyphenyl)-1-(6-fluoro-7-methyl-1H-indol-3-yl)-2-((3-methoxy-5-(methylsulfonyl)phenyl)amino)ethanone] | 1.3 | 8000 | – | –
2 | COc1cc(NC(C(=O)c2c[nH]c3c(C)c(Cl)ccc23)c2ccc(F)cc2OC)cc(S(C)(=O)=O)c1 (racemic) [Compound 3, 1-(6-chloro-7-methyl-1H-indol-3-yl)-2-(4-fluoro-2-methoxyphenyl)-2-((3-methoxy-5-(methylsulfonyl)phenyl)amino)ethanone] | 0.58 | 7200 | – | –
3 | COc1cc(NC(C(=O)c2c[nH]c3cc(Cl)ccc23)c2ccc(F)cc2OC)cc(S(C)(=O)=O)c1 (racemic) [Compound 4, 1-(6-chloro-1H-indol-3-yl)-2-(4-fluoro-2-methoxyphenyl)-2-((3-methoxy-5-(methylsulfonyl)phenyl)amino)ethanone] | 1.1 | 6600 | – | –
4 | COc1cc(NC(C(=O)c2c[nH]c3cc(OC)ccc23)c2ccc(F)cc2OC)cc(S(C)(=O)=O)c1 (racemic) [Compound 5, 2-(4-fluoro-2-methoxyphenyl)-1-(6-methoxy-1H-indol-3-yl)-2-((3-methoxy-5-(methylsulfonyl)phenyl)amino)ethanone] | 2 | 24000 | – | –
5 | COc1cc(NC(C(=O)c2c[nH]c3cc(F)c(F)cc23)c2ccc(F)cc2OC)cc(S(C)(=O)=O)c1 (racemic) [Compound 7, 1-(5,6-difluoro-1H-indol-3-yl)-2-(4-fluoro-2-methoxyphenyl)-2-((3-methoxy-5-(methylsulfonyl)phenyl)amino)ethanone] | 1.5 | 5000 | – | –
6 | COc1cc(NC(C(=O)c2c[nH]c3c(C)cc(F)cc23)c2ccc(F)cc2OC)cc(S(C)(=O)=O)c1 (racemic) [Compound 8, 2-(4-fluoro-2-methoxyphenyl)-1-(5-fluoro-7-methyl-1H-indol-3-yl)-2-((3-methoxy-5-(methylsulfonyl)phenyl)amino)ethanone] | 2.8 | 7600 | – | –
7 | COc1cc(NC(C(=O)c2c[nH]c3cc(C)c(F)cc23)c2ccc(F)cc2OC)cc(S(C)(=O)=O)c1 (racemic) [Compound 9, 2-(4-fluoro-2-methoxyphenyl)-1-(5-fluoro-6-methyl-1H-indol-3-yl)-2-((3-methoxy-5-(methylsulfonyl)phenyl)amino)ethanone] | 1.6 | 8800 | – | –
8 | COc1cc(NC(C(=O)c2c[nH]c3cc(OC)c(C)cc23)c2ccc(F)cc2OC)cc(S(C)(=O)=O)c1 (racemic) [Compound 10, 2-(4-fluoro-2-methoxyphenyl)-2-((3-methoxy-5-(methylsulfonyl)phenyl)amino)-1-(6-methoxy-5-methyl-1H-indol-3-yl)ethanone] | 1.1 | 7800 | – | –
9 | COc1cc(NC(C(=O)c2c[nH]c3cc(OC)c(F)cc23)c2ccc(F)cc2OC)cc(S(C)(=O)=O)c1 (racemic) [Compound 11, 2-(4-fluoro-2-methoxyphenyl)-1-(5-fluoro-6-methoxy-1H-indol-3-yl)-2-((3-methoxy-5-(methylsulfonyl)phenyl)amino)ethanone] | 3 | 12000 | – | –
10 | COc1cc(NC(C(=O)c2c[nH]c3c(Cl)c(OC)ccc23)c2ccc(F)cc2OC)cc(S(C)(=O)=O)c1 (racemic) [Compound 12, 1-(7-chloro-6-methoxy-1H-indol-3-yl)-2-(4-fluoro-2-methoxyphenyl)-2-((3-methoxy-5-(methylsulfonyl)phenyl)amino)ethanone] | 0.6 | > 25000 | – | –
11 | COc1cc(NC(C(=O)c2c[nH]c3c(F)c(F)ccc23)c2ccc(F)cc2OC)cc(S(C)(=O)=O)c1 (racemic) [Compound 13, 1-(6,7-difluoro-1H-indol-3-yl)-2-(4-fluoro-2-methoxyphenyl)-2-((3-methoxy-5-(methylsulfonyl)phenyl)amino)ethanone] | 1.4 | 7600 | – | –
12 | COc1cc(NC(C(=O)c2c[nH]c3cc(F)c(C)cc23)c2ccc(F)cc2OC)cc(S(C)(=O)=O)c1 (racemic) [Compound 14, 2-(4-fluoro-2-methoxyphenyl)-1-(6-fluoro-5-methyl-1H-indol-3-yl)-2-((3-methoxy-5-(methylsulfonyl)phenyl)amino)ethanone] | 1.5 | 5300 | – | –
13 | COc1cc(NC(C(=O)c2c[nH]c3ccc(C)cc23)c2ccc(F)cc2OC)cc(S(C)(=O)=O)c1 (racemic) [Compound 15, 2-(4-fluoro-2-methoxyphenyl)-2-((3-methoxy-5-(methylsulfonyl)phenyl)amino)-1-(5-methyl-1H-indol-3-yl)ethanone] | 1.5 | 7800 | – | –
14 | COc1cc(NC(C(=O)c2c[nH]c3cc(OC)c(Cl)cc23)c2ccc(F)cc2OC)cc(S(C)(=O)=O)c1 (racemic) [Compound 16, 1-(5-chloro-6-methoxy-1H-indol-3-yl)-2-(4-fluoro-2-methoxyphenyl)-2-((3-methoxy-5-(methylsulfonyl)phenyl)amino)ethanone] | 0.66 | 8800 | – | –
15 | COc1cc(NC(C(=O)c2c[nH]c3ccc(C(F)(F)F)cc23)c2ccc(F)cc2OC)cc(S(C)(=O)=O)c1 (racemic) [Compound 17, 2-(4-fluoro-2-methoxyphenyl)-2-((3-methoxy-5-(methylsulfonyl)phenyl)amino)-1-(5-(trifluoromethyl)-1H-indol-3-yl)ethanone] | 0.24 | 3500 | – | –
16 | COc1cc(NC(C(=O)c2c[nH]c3ccc(OC(F)(F)F)cc23)c2ccc(F)cc2OC)cc(S(C)(=O)=O)c1 (racemic) [Compound 18, 2-(4-fluoro-2-methoxyphenyl)-2-((3-methoxy-5-(methylsulfonyl)phenyl)amino)-1-(5-(trifluoromethoxy)-1H-indol-3-yl)ethanone] | 0.25 | 3300 | – | –
17 | COc1cc(NC(C(=O)c2c[nH]c3cc(OC)ccc23)c2ccc(F)cc2OC)cc(S(C)(=O)=O)c1 (single isomer, unassigned) [Enantiomer 5A, 2-(4-fluoro-2-methoxyphenyl)-1-(6-methoxy-1H-indol-3-yl)-2-((3-methoxy-5-(methylsulfonyl)phenyl)amino)ethanone] | – | 24000 | 70 | –
18 | COc1cc(NC(C(=O)c2c[nH]c3c(F)c(F)ccc23)c2ccc(F)cc2OC)cc(S(C)(=O)=O)c1 (single isomer, unassigned) [Enantiomer 13A, 1-(6,7-difluoro-1H-indol-3-yl)-2-(4-fluoro-2-methoxyphenyl)-2-((3-methoxy-5-(methylsulfonyl)phenyl)amino)ethanone] | – | 9500 | – | 17
